Assay results from US9695155B2, “Herbicidal substituted pyrimidinyloxy benzene compounds” (E. I. DU PONT DE NEMOURS AND COMPANY, priority 2013, dated 2017).

Columns and labels:
[1] = tested on: barnyardgrass; experiment: Test A postemergence; format: in vivo, Echinochloa crus-galli; conditions: 0 to 100 scale where 0 is no effect and 100 is complete control
In short: (§1)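 Greenhouse pot test, loam/sand soil. Formulation: non-phytotoxic solvent mix plus surfactant. Pre: directed spray onto soil after sowing. Post: plants at 1–2 leaf, 2–10 cm. Rated visually vs untreated controls at ~10 d, 0 (no effect) to 100 (complete control).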

[2] = tested on: blackgrass; experiment: Test A postemergence; format: in vivo, Alopecurus myosuroides; conditions: 0 to 100 scale where 0 is no effect and 100 is complete control
In short: as §1

[3] = tested on: sedge, umbrella; experiment: Test B flooded paddy test; format: in vivo, Cyperus difformis; conditions: Flood, 250 g ai/ha, 0 to 100 scale where 0 is no effect and 100 is complete control
In short: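 Plants were grown to the 2-leaf stage, then pots were flooded to 3 cm above the soil and compounds were applied directly into the paddy water. That depth was held throughout, and after 13 to 15 days in the greenhouse injury was rated visually against controls on a 0–100 scale (0 no effect, 100 complete control).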

[4] = tested on: johnsongrass; experiment: Test C preemergence; format: in vivo, Sorghum halepense
In short: (§2)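 Preemergence: seeds sown in a loam soil–sand blend and sprayed with test chemical in a non-phytotoxic solvent mixture containing surfactant. Postemergence: plants at 2 to 18 cm (1- to 4-leaf stage) in peat-based medium, treated with the same formulation. Greenhouse 13 to 15 days, then visual rating 0 (no effect) to 100 (complete control).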

[5] = tested on: soybean; experiment: Test C preemergence; format: in vivo, Glycine max
In short: as §2

[6] = tested on: oilseed rape; experiment: Test C preemergence; format: in vivo, Brassica napus
In short: as §2

[7] = tested on: waterhemp; experiment: Test C preemergence; format: in vivo, Amaranthus rudis
In short: as §2

[8] = tested on: oilseed rape; experiment: Test C postemergence; format: in vivo, Brassica napus
In short: as §2

[9] = tested on: velvetleaf; experiment: Test C postemergence; format: in vivo, Abutilon theophrasti
In short: as §2

[10] = tested on: chickweed; experiment: Test C postemergence; format: in vivo, Stellaria media
In short: as §2

[11] = 16 g ai/ha, preemergence, scale 0 to 100 (0 no effect, 100 complete control)
[12] = 62 g ai/ha, preemergence, scale 0 (no effect) to 100 (complete control)
[13] = 125 g ai/ha, preemergence, scale 0 (no effect) to 100 (complete control)
[14] = Preemergence, 31 g ai/ha, scale 0 to 100, 0 no effect, 100 complete control
[15] = Postemergence, 31 g ai/ha, scale 0 to 100 (0 no effect, 100 complete control), 13 to 15 days
[16] = Postemergence, 62 g ai/ha, scale 0 to 100 (0 no effect, 100 complete control)
[17] = 16 g ai/ha, postemergence, 0 is no effect, 100 is complete control
[18] = 125 g ai/ha, postemergence, visual rating, scale 0 to 100 (0 no effect, 100 complete control)

## CCOc1cnn(-c2c(C#N)cccc2Oc2ncc(F)cn2)c1 [Compound 89]
[1]; 125 g ai/ha
  Plant response rating, Barnyardgrass: 40
[1]; 500 g ai/ha
  Plant response rating, Barnyardgrass: 90
[2]; 125 g ai/ha
  Plant response rating, Blackgrass: 40
[2]; 500 g ai/ha
  Plant response rating, Blackgrass: 90
[3]
  Plant response rating, Sedge, Umbrella: 85
[4]; [11]
  Johnsongrass plant response rating: 0
[4]; [12]
  Johnsongrass plant response rating: 20
[4]; [13]
  Johnsongrass plant response rating: 75
[4]; [14]
  Plant response rating, Johnsongrass: 0
[5]; [11]
  Soybean plant response rating: 30
[5]; [12]
  Soybean plant response rating: 90
[5]; [13]
  Soybean plant response rating: 98
[5]; [14]
  Plant response rating, Soybean: 45
[6]; [11]
  Oilseed Rape plant response rating: 80
[6]; [12]
  Oilseed Rape plant response rating: 95
[6]; [13]
  Oilseed Rape plant response rating: 98
[6]; [14]
  Plant response rating, Oilseed Rape: 80
[7]; [11]
  Waterhemp plant response rating: 80
[7]; [12]
  Waterhemp plant response rating: 100
[7]; [13]
  Waterhemp plant response rating: 100
[7]; [14]
  Plant response rating, Waterhemp: 100
[8]; 125 g ai/ha, postemergence
  Plant response rating (0 to 100), Oilseed Rape: 60
[8]; [15]
  Plant response rating, Oilseed Rape: 25
[8]; [16]
  Plant response rating, Oilseed Rape: 55
[9]; 125 g ai/ha, postemergence
  Plant response rating (0 to 100), Velvetleaf: 40
[9]; [15]
  Plant response rating, Velvetleaf: 15
[9]; [16]
  Plant response rating, Velvetleaf: 25
[10]; 16 g ai/ha, postemergence, visual rating, scale 0 to 100 (0 no effect, 100 complete control), 13 to 15 days
  Chickweed plant response rating: 20
[10]; 125 g ai/ha, postemergence
  Plant response rating (0 to 100), Chickweed: 60
[10]; [15]
  Plant response rating, Chickweed: 50
[10]; [16]
  Plant response rating, Chickweed: 50

## Clc1cnc(Oc2cccc(Br)c2-n2cc(Br)nn2)nc1 [Compound 129]
[1]; 125 g ai/ha
  Barnyardgrass plant response rating: 90
[1]; 500 g ai/ha
  Plant response rating, Barnyardgrass: 90
[2]; 125 g ai/ha
  Blackgrass plant response rating: 70
[2]; 500 g ai/ha
  Plant response rating, Blackgrass: 90
[3]
  Plant response rating, Sedge, Umbrella: 65
[4]; [11]
  Johnsongrass plant response rating: 0
[4]; [12]
  Johnsongrass plant response rating: 40
[4]; [13]
  Johnsongrass plant response rating: 90
[4]; [14]
  Plant response rating, Johnsongrass: 10
[5]; [11]
  Soybean plant response rating: 10
[5]; [12]
  Soybean plant response rating: 40
[5]; [13]
  Soybean plant response rating: 80
[5]; [14]
  Plant response rating, Soybean: 10
[6]; [11]
  Oilseed Rape plant response rating: 50
[6]; [12]
  Oilseed Rape plant response rating: 100
[6]; [13]
  Oilseed Rape plant response rating: 100
[6]; [14]
  Plant response rating, Oilseed Rape: 85
[7]; [11]
  Waterhemp plant response rating: 100
[7]; [12]
  Waterhemp plant response rating: 100
[7]; [13]
  Waterhemp plant response rating: 100
[7]; [14]
  Plant response rating, Waterhemp: 100
[8]; [17]
  Plant response rating (0 to 100), Oilseed Rape: 5
[8]; [18]
  Plant response rating, Oilseed Rape: 60
[8]; [16]
  Plant response rating, Oilseed Rape: 60
[9]; [17]
  Plant response rating (0 to 100), Velvetleaf: 15
[9]; [18]
  Plant response rating, Velvetleaf: 40
[9]; [16]
  Plant response rating, Velvetleaf: 40
[10]; [17]
  Plant response rating (0 to 100), Chickweed: 50
[10]; [18]
  Plant response rating, Chickweed: 55
[10]; [16]
  Plant response rating, Chickweed: 70

## FC(F)(F)Sc1cnn(-c2ccccc2Oc2ncc(Cl)cn2)c1 [Compound 132, 5-chloro-2-[2-[4-(trifluoromethylthio)-1H-pyrazol-1-yl]phenoxy]pyrimidine]
[1]; Echinochloa crus-galli, post-emergence, 240 h, 125 g ai/ha, read-out: Barnyardgrass plant response rating
  pest or weed control at 125 g/ha: 50%
[1]; Echinochloa crus-galli, post-emergence, 240 h, 500 g ai/ha, read-out: Plant response rating, Barnyardgrass
  pest or weed control at 500 g/ha: 70%
[2]; 125 g ai/ha
  Blackgrass plant response rating: 60
[2]; 500 g ai/ha
  Plant response rating, Blackgrass: 90
[3]; Cyperus difformis, read-out: Plant response rating, Sedge, Umbrella
  pest or weed control at 250 g/ha: 0%
[4]; Sorghum halepense, pre-emergence, 16 g ai/ha, preemergence, scale 0 to 100 (0 no effect, 100 complete control), read-out: Johnsongrass plant response rating
  pest or weed control at 16 g/ha: 0%
[4]; Sorghum halepense, pre-emergence, 62 g ai/ha, preemergence, scale 0 (no effect) to 100 (complete control), read-out: Johnsongrass plant response rating
  pest or weed control at 62 g/ha: 0%
[4]; Sorghum halepense, pre-emergence, 125 g ai/ha, preemergence, scale 0 (no effect) to 100 (complete control), read-out: Johnsongrass plant response rating
  pest or weed control at 125 g/ha: 35%
[4]; Sorghum halepense, pre-emergence, Preemergence, 31 g ai/ha, scale 0 to 100, 0 no effect, 100 complete control, read-out: Plant response rating, Johnsongrass
  pest or weed control at 31 g/ha: 0%
[5]; Glycine max, pre-emergence, 16 g ai/ha, preemergence, scale 0 to 100 (0 no effect, 100 complete control), read-out: Soybean plant response rating
  plant injury at 16 g/ha: 0%
[5]; Glycine max, pre-emergence, 62 g ai/ha, preemergence, scale 0 (no effect) to 100 (complete control), read-out: Soybean plant response rating
  plant injury at 62 g/ha: 5%
[5]; Glycine max, pre-emergence, 125 g ai/ha, preemergence, scale 0 (no effect) to 100 (complete control), read-out: Soybean plant response rating
  plant injury at 125 g/ha: 55%
[5]; Glycine max, pre-emergence, Preemergence, 31 g ai/ha, scale 0 to 100, 0 no effect, 100 complete control, read-out: Plant response rating, Soybean
  plant injury at 31 g/ha: 0%
[6]; Brassica napus, pre-emergence, 16 g ai/ha, preemergence, scale 0 to 100 (0 no effect, 100 complete control), read-out: Oilseed Rape plant response rating
  plant injury at 16 g/ha: 20%
[6]; Brassica napus, pre-emergence, 62 g ai/ha, preemergence, scale 0 (no effect) to 100 (complete control), read-out: Oilseed Rape plant response rating
  plant injury at 62 g/ha: 100%
[6]; Brassica napus, pre-emergence, 125 g ai/ha, preemergence, scale 0 (no effect) to 100 (complete control), read-out: Oilseed Rape plant response rating
  plant injury at 125 g/ha: 100%
[6]; Brassica napus, pre-emergence, Preemergence, 31 g ai/ha, scale 0 to 100, 0 no effect, 100 complete control, read-out: Plant response rating, Oilseed Rape
  plant injury at 31 g/ha: 85%
[7]; Amaranthus tuberculatus, pre-emergence, 16 g ai/ha, preemergence, scale 0 to 100 (0 no effect, 100 complete control), read-out: Waterhemp plant response rating
  pest or weed control at 16 g/ha: 85%
[7]; Amaranthus tuberculatus, pre-emergence, 62 g ai/ha, preemergence, scale 0 (no effect) to 100 (complete control), read-out: Waterhemp plant response rating
  pest or weed control at 62 g/ha: 100%
[7]; Amaranthus tuberculatus, pre-emergence, 125 g ai/ha, preemergence, scale 0 (no effect) to 100 (complete control), read-out: Waterhemp plant response rating
  pest or weed control at 125 g/ha: 100%
[7]; Amaranthus tuberculatus, pre-emergence, Preemergence, 31 g ai/ha, scale 0 to 100, 0 no effect, 100 complete control, read-out: Plant response rating, Waterhemp
  pest or weed control at 31 g/ha: 98%
[8]; Brassica napus, post-emergence, 16 g ai/ha, postemergence, 0 is no effect, 100 is complete control, read-out: Plant response rating (0 to 100), Oilseed Rape
  plant injury at 16 g/ha: 40%
[8]; Brassica napus, post-emergence, 125 g ai/ha, postemergence, visual rating, scale 0 to 100 (0 no effect, 100 complete control), read-out: Plant response rating, Oilseed Rape
  plant injury at 125 g/ha: 95%
[8]; Brassica napus, post-emergence, Postemergence, 62 g ai/ha, scale 0 to 100 (0 no effect, 100 complete control), read-out: Plant response rating, Oilseed Rape
  plant injury at 62 g/ha: 70%
[9]; Abutilon theophrasti, post-emergence, 16 g ai/ha, postemergence, 0 is no effect, 100 is complete control, read-out: Plant response rating (0 to 100), Velvetleaf
  pest or weed control at 16 g/ha: 5%
[9]; Abutilon theophrasti, post-emergence, 125 g ai/ha, postemergence, visual rating, scale 0 to 100 (0 no effect, 100 complete control), read-out: Plant response rating, Velvetleaf
  pest or weed control at 125 g/ha: 45%
[9]; Abutilon theophrasti, post-emergence, Postemergence, 62 g ai/ha, scale 0 to 100 (0 no effect, 100 complete control), read-out: Plant response rating, Velvetleaf
  pest or weed control at 62 g/ha: 40%
[10]; Stellaria media, post-emergence, 16 g ai/ha, postemergence, 0 is no effect, 100 is complete control, read-out: Plant response rating (0 to 100), Chickweed
  pest or weed control at 16 g/ha: 10%
[10]; Stellaria media, post-emergence, 125 g ai/ha, postemergence, visual rating, scale 0 to 100 (0 no effect, 100 complete control), read-out: Plant response rating, Chickweed
  pest or weed control at 125 g/ha: 40%
[10]; Stellaria media, post-emergence, Postemergence, 62 g ai/ha, scale 0 to 100 (0 no effect, 100 complete control), read-out: Plant response rating, Chickweed
  pest or weed control at 62 g/ha: 30%

## Cc1cnc(Oc2cccc(C#N)c2-n2cc(I)cn2)nc1 [Compound 136]
[1]; 125 g ai/ha
  Barnyardgrass plant response rating: 30
[1]; 500 g ai/ha
  Plant response rating, Barnyardgrass: 90
[2]; 125 g ai/ha
  Blackgrass plant response rating: 20
[2]; 500 g ai/ha
  Plant response rating, Blackgrass: 100
[3]
  Plant response rating, Sedge, Umbrella: 70
[4]; [11]
  Johnsongrass plant response rating: 0
[4]; [12]
  Johnsongrass plant response rating: 20
[4]; [13]
  Johnsongrass plant response rating: 60
[5]; [11]
  Soybean plant response rating: 20
[5]; [12]
  Soybean plant response rating: 50
[5]; [13]
  Soybean plant response rating: 85
[6]; [11]
  Oilseed Rape plant response rating: 0
[6]; [12]
  Oilseed Rape plant response rating: 50
[6]; [13]
  Oilseed Rape plant response rating: 100
[7]; [11]
  Waterhemp plant response rating: 0
[7]; [12]
  Waterhemp plant response rating: 75
[7]; [13]
  Waterhemp plant response rating: 100
[8]; [17]
  Plant response rating (0 to 100), Oilseed Rape: 0
[8]; [18]
  Plant response rating, Oilseed Rape: 5
[8]; [16]
  Plant response rating, Oilseed Rape: 5
[9]; [17]
  Plant response rating (0 to 100), Velvetleaf: 10
[9]; [18]
  Plant response rating, Velvetleaf: 25
[9]; [16]
  Plant response rating, Velvetleaf: 10
[10]; [17]
  Plant response rating (0 to 100), Chickweed: 5
[10]; [18]
  Plant response rating, Chickweed: 60
[10]; [16]
  Plant response rating, Chickweed: 5
